According to patent US9034921B2, “Diphenylmethane derivatives as SGLT2 inhibitors” (GREEN CROSS CORPORATION, priority 2011, dated 2015):

These compounds were tested against human SGLT2 (Homo sapiens (Human), UniProt P31639) (assay: Inhibitory effects on human SGLT2 activities (14C-AMG uptake, sodium-dependent glucose transport assay)). Conditions: CHO cells stably expressing hSGLT2, 37° C., 2 h, single determinations.
human SGLT2, sequence (P31639 whole entry): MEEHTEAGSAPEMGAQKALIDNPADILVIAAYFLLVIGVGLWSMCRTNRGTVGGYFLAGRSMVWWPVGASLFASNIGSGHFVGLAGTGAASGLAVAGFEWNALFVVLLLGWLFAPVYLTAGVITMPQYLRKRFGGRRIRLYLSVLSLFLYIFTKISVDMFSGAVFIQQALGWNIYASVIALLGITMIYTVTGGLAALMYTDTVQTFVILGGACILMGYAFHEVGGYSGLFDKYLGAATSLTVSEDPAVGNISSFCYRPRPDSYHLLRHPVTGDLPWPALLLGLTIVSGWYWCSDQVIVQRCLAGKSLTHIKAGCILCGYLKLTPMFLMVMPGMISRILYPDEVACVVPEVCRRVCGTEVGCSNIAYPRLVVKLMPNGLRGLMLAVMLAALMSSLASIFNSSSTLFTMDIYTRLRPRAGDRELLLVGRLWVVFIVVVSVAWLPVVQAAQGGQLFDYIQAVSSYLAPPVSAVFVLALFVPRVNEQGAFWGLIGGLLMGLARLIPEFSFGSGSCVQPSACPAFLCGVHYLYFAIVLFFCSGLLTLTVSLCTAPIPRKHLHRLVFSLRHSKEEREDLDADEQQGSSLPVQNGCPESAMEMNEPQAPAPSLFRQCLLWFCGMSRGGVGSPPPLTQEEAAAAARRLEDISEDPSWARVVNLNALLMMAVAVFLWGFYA
Assay type: cell-based
Method in brief: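 CHO cells stably expressing hSGLT2 were preincubated 10 min at 37 °C in choline (Na+-free) buffer, then exposed 2 h at 37 °C to compound in Na+ uptake buffer with 8 μM 14C-AMG and 1 mM unlabeled AMG. Radioactivity was scintillation counted; IC50 came from nonlinear regression.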
`OC[C@H]1O[C@@H](c2cc(Cc3ccc(C(F)(F)F)cc3)c(Cl)c3c2CCO3)[C@H](O)[C@@H](O)[C@@H]1O` [Example E124, (2S,3R,4R,5S,6R)-2-(7-Chloro-6-(4-(trifluoromethyl)benzyl)-2,3-dihydrobenzofuran-4-yl)-6-(hydroxymethyl)tetrahydro-2H-pyran-3,4,5-triol] showed an IC50 of 1.25 nM. With `CCOc1ccc(Cc2cc3c(c([C@@H]4O[C@H](CO)[C@@H](O)[C@H](O)[C@H]4O)c2)CCC3)cc1` [Example E002, (2S,3R,4R,5S,6R)-2-(6-(4-Ethoxybenzyl)-2,3-dihydro-1H-inden-4-yl)-6-(hydroxymethyl)tetrahydro-2H-pyran-3,4,5-triol] the IC50 was 9 nM. In the case of `OC[C@H]1O[C@@H](c2cc(Cc3ccc4c(c3)OCCO4)c(Cl)c3c2CCO3)[C@H](O)[C@@H](O)[C@@H]1O` [Example E045, (2S,3R,4R,5S,6R)-2-(7-Chloro-6-((2,3-dihydrobenzo[b][1,4]dioxin-6-yl)methyl)-2,3-dihydrobenzofuran-4-yl)-6-(hydroxymethyl)tetrahydro-2H-pyran-3,4,5-triol], the IC50 is reported as 1.37 nM. `OC[C@H]1O[C@@H](c2cc(Cc3ccc(C4CC4)cc3)c(Cl)c3c2CCC3)[C@H](O)[C@@H](O)[C@@H]1O` [Example E118, (2S,3R,4R,5S,6R)-2-(7-Chloro-6-(4-cyclopropylbenzyl)-2,3-dihydro-1H-inden-4-yl)-6-(hydroxymethyl)tetrahydro-2H-pyran-3,4,5-triol] gave an IC50 of 0.678 nM. Compound `OC[C@H]1O[C@@H](c2cc(Cc3ccc4c(c3)OCCO4)c(Cl)c3c2OCCC3)[C@H](O)[C@@H](O)[C@@H]1O` [Example E044, (2S,3R,4R,5S,6R)-2-(5-Chloro-6-((2,3-dihydrobenzo[b][1,4]dioxin-6-yl)methyl)chroman-8-yl)-6-(hydroxymethyl)tetrahydro-2H-pyran-3,4,5-triol] has an IC50 of 1.65 nM. Compound `OC[C@H]1O[C@@H](c2ccc(Cl)c(Cc3ccc4c(c3)CCS4)c2)[C@H](O)[C@@H](O)[C@@H]1O` [Example E032, (2S,3R,4R,5S,6R)-2-(4-Chloro-3-((2,3-dihydrobenzo[b]thiophen-5-yl)methyl)phenyl)-6-(hydroxymethyl)tetrahydro-2H-pyran-3,4,5-triol] has an IC50 of 2.16 nM. `CC1Cc2c([C@@H]3O[C@H](CO)[C@@H](O)[C@H](O)[C@H]3O)cc(Cc3ccc(C(C)C)cc3)c(Cl)c2O1` (stereo partly drawn) [Example E150, (2S,3R,4R,5S,6R)-2-(7-Chloro-6-(4-isopropylbenzyl)-2-methyl-2,3-dihydrobenzofuran-4-yl)-6-(hydroxymethyl)tetrahydro-2H-pyran-3,4,5-triol] gave an IC50 of 1.44 nM. `CC(C)n1cc2cc(Cc3cc([C@@H]4O[C@H](CO)[C@@H](O)[C@H](O)[C@H]4O)ccc3Cl)ccc2n1` [Example E040, (2S,3R,4R,5S,6R)-2-(4-Chloro-3-((2-isopropyl-2H-indazol-5-yl)methyl)phenyl)-6-(hydroxymethyl)tetrahydro-2H-pyran-3,4,5-triol] showed an IC50 of 4.44 nM. For `COc1cc([C@@H]2O[C@H](CO)[C@@H](O)[C@H](O)[C@H]2O)cc(Cc2ccc3c(c2)OCCO3)c1Cl` [Example E043, (2S,3R,4R,5S,6R)-2-(4-Chloro-3-((2,3-dihydrobenzo[b][1,4]dioxin-6-yl)methyl)-5-methoxyphenyl)-6-(hydroxymethyl)tetrahydro-2H-pyran-3,4,5-triol], the IC50 was 2.68 nM. Compound `CCOc1ccc(Cc2cc([C@@H]3O[C@H](C)[C@@H](O)[C@H](O)[C@H]3O)c3c(c2Cl)OCC3)cc1` [Example E125, (2S,3R,4S,5S,6R)-2-(7-Chloro-6-(4-ethoxybenzyl)-2,3-dihydrobenzofuran-4-yl)-6-methyltetrahydro-2H-pyran-3,4,5-triol] has an IC50 of 0.728 nM. `COc1ccc(Cc2cc([C@@H]3O[C@H](CO)[C@@H](O)[C@H](O)[C@H]3O)c3c(c2Cl)SCC3)cc1` [Example E241, (2S,3R,4R,5S,6R)-2-(7-Chloro-6-(4-methoxybenzyl)-2,3-dihydrobenzo[b]thiophen-4-yl)-6-(hydroxymethyl)tetrahydro-2H-pyran-3,4,5-triol] was tested, and the IC50 was 0.902 nM. Work on `CCc1ccc(C2OCc3ccc([C@@H]4O[C@H](CO)[C@@H](O)[C@H](O)[C@H]4O)cc32)cc1` (stereo partly drawn) [Example E099, (2S,3R,4R,5S,6R)-2-(3-(4-Ethylphenyl)-1,3-dihydroisobenzofuran-5-yl)-6-(hydroxymethyl)-tetrahydro-2H-pyran-3,4,5-triol] yielded an IC50 of 56.2 nM. Compound `OC[C@H]1O[C@@H](c2cc(Cc3ccc(OC4CCC4)cc3)c(Cl)c3c2CCO3)[C@H](O)[C@@H](O)[C@@H]1O` [Example E234, (2S,3R,4R,5S,6R)-2-(7-Chloro-6-(4-cyclobutoxybenzyl)-2,3-dihydrobenzofuran-4-yl)-6-(hydroxymethyl)-tetrahydro-2H-pyran-3,4,5-triol] has an IC50 of 2.82 nM. `OC[C@H]1O[C@@H](c2cc(Cc3ccc4c(c3)NCCC4)c(Cl)c3c2CCO3)[C@H](O)[C@@H](O)[C@@H]1O` [Example E230, (2S,3R,4R,5S,6R)-2-(7-Chloro-6-((1,2,3,4-tetrahydroquinolin-7-yl)methyl)-2,3-dihydrobenzofuran-4-yl)-6-(hydroxymethyl)-tetrahydro-2H-pyran-3,4,5-triol] showed an IC50 of 2.49 nM. Work on `CCc1ccc(Cc2cc([C@@H]3O[C@H](CO)[C@@H](O)[C@H](O)[C@H]3O)c3c(c2Cl)C(C)(C)CO3)cc1` [Example E217, (2S,3R,4R,5S,6R)-2-(4-Chloro-5-(4-ethylbenzyl)-3,3-dimethyl-2,3-dihydrobenzofuran-7-yl)-6-(hydroxymethyl)tetrahydro-2H-pyran-3,4,5-triol] yielded an IC50 of 1.76 nM. With `CCc1ccc(Cc2cc([C@@H]3O[C@H](CO)[C@@H](O)[C@H](O)[C@H]3O)c3c(c2C(F)F)CCC3)cc1` [Example E239, (2S,3R,4R,5S,6R)-2-(7-(Difluoromethyl)-6-(4-ethylbenzyl)-2,3-dihydro-1H-inden-4-yl)-6-(hydroxymethyl)tetrahydro-2H-pyran-3,4,5-triol] the IC50 was 0.718 nM. In the case of `CN(C)c1ccc(Cc2cc([C@@H]3O[C@H](CO)[C@@H](O)[C@H](O)[C@H]3O)c3c(c2Cl)CCC3)cc1` [Example E116, (2S,3R,4R,5S,6R)-2-(7-Chloro-6-(4-(dimethylamino)benzyl)-2,3-dihydro-1H-inden-4-yl)-6-(hydroxymethyl)tetrahydro-2H-pyran-3,4,5-triol], the IC50 is reported as 0.475 nM. `OC[C@H]1O[C@@H](c2cc(Cc3ccc4c(c3)OCCO4)c(Cl)c3c2CCC3)[C@H](O)[C@@H](O)[C@@H]1O` [Example E106, (2S,3R,4R,5S,6R)-2-(7-Chloro-6-((2,3-dihydrobenzo[b][1,4]dioxin-6-yl)methyl)-2,3-dihydro-1H-inden-4-yl)-6-(hydroxymethyl)tetrahydro-2H-pyran-3,4,5-triol] was tested, and the IC50 was 0.616 nM. In the case of `CCOc1ccc(Cc2cc([C@@H]3O[C@H](SC)[C@@H](O)[C@H](O)[C@H]3O)cc(OC)c2Cl)cc1` [Example E114, (2S,3R,4R,5S,6R)-2-(4-Chloro-3-(4-ethoxybenzyl)-5-methoxyphenyl)-6-(methylthio)tetrahydro-2H-pyran-3,4,5-triol], the IC50 is reported as 0.308 nM. In the case of `OC[C@H]1O[C@@H](c2ccc(Cl)c(Cc3ccc4c(c3)SCO4)c2)[C@H](O)[C@@H](O)[C@@H]1O` [Example E066, (2S,3R,4R,5S,6R)-2-(3-(Benzo[d][1,3]oxathiol-5-ylmethyl)-4-chlorophenyl)-6-(hydroxymethyl)-tetrahydro-2H-pyran-3,4,5-triol], the IC50 is reported as 3.67 nM.
